Data as given in article PMC6014988, “Precision therapeutic targeting of human cancer cell motility” (Nature Communications, 2018).
pIC50: −log10 of the molar value.

What was measured:
[1] = system: 284 kinases and 20 phosphatases; assay: KinaseProfiler and PhosphataseProfiler assay platforms; type: biochemical
Text: There were two initial false positives (for a false positive rate of 0.4%), that were subsequently found to be negative in a dedicated follow up analysis. Specific and important negative findings include MKK4, p38 MAPK (α, β, γ and δ […]
by competing for phospho-acceptor binding.
Kinase assay system #2. The Kinex™ kinase assay system (Kinexus Proteomics Company).
This platform uses recombinant human protein kinases expressed in an insect expression system, thus allowing an avenue for post-translational modification. Also, this platform measures inhibition of ATP binding. This platform putatively measured 200 different kinases, and we […]
tested KBU2046 at 1 and 10 μM. […] There were two […]
important technical issues. First, at 10 μM KBU2046 interfered with the colorimetric-based […]
However, while considering the above factors, this screen was informative for a number of […]
function by competing for ATP binding in the active site.
Kinase assay system #3. KinaseProfiler™ and PhosphataseProfiler™ assay platforms (Millipore). This platform is radiometric-based (considered gold standard). It measures competition with respect to ATP for kinases and substrate protein for phosphatases. Most proteins were expressed via an insect-based system, and it evaluates a panel of 284 kinases and 20 phosphatases. There were two initial false positives, for a false positive rate of 0.7%, but both […]

1542CPTX = assay: Three-day MTT cell growth inhibition assay, 1542CPTX; type: cell-based, human; conditions: Homo sapiens, 72 h, 3 days
[2] = as above; type: cell-based, human; conditions: human, 1542CPTX cells
CK2 = CK2 in vitro kinase assay; type: biochemical; conditions: in the presence of CDC37
Text: CK2 activity. […] If they haven’t, I […]
affected by KBU2046. Specifically, because of CK2’s known link to S226 we likewise suspected that it could be involved in the mechanism of action. CK2 was indeed included in the LUMIER assay (see
Fig. 6 and Supplementary Fig. 19). We used the LUMIER assay to evaluate whether KBU2046 was altering the binding of client protein kinases to HSP90β/CDC37 heterocomplexes in intact cells, and thereby evaluated hundreds of client protein kinases. In this manner, we observed that KBU2046 did […]
known mechanistic link, we also utilized our in vitro system to interrogate purified CK2 and specifically […]
below, and if requested, we are happy to insert these otherwise negative findings into supplementary […]
CK2 in vitro kinase assay. As described in Figs 6f and g, the ability of recombinant CK2 to phosphorylate serine 226 on HSP90β, in the presence of CDC37, was evaluated +/- KBU2046 (46). Reaction time in minutes
(Mins) is denoted. KBU2046 had no effect upon serine 226 phosphorylation.
12. On top of the 8th page of the Results (where the authors discuss data in Fig. 5b-d and in […]
hydrogen bond formation with Glu33 of Hsp90beta to create formation of a new pocket into which the drug binds. […]
Additional comment 1. Figure 4c: if the data are expressed as %VC, should not the VC bar be set at […]

[3] = Systemic off-target effects, histologic examination after 35 days; type: in vivo
Protocol: Histologic examination of tissue: Organs of athymic male mice stained with hematoxylin and eosin, trichrome, or giemsa were microscopically examined by a mouse pathologist (L.L.) in a blinded fashion, and toxicity scored using an established semi-quantitative histological scoring system[38] (Supplementary Fig. 8). The following clinical chemistry parameters were measured in blood of CD1 male and female mice by Charles River Research Animal Diagnostic Services: cholesterol, triglycerides, alanine aminotransferase, aspartate aminotransferase, total bilirubin, glucose, phosphorus, total protein, calcium, blood urea nitrogen (BUN), creatinine, albumin, Na, K, Cl, white blood cells (with differential), red blood cells, hemoglobin, and platelets.
Supplementary Figure 7. KBU2046 treatment is not associated with systemic off-target effects. For histologic examination of tissue, cohorts of N=5 male 6-8 week old Balb/c athymic […]
KBU2046 as described in manuscript Figure 2a. […] Organs were examined for damage using a semi-quantitative histological scoring system, as described 4. […]

O=C1c2ccccc2OCC1c1ccc(F)cc1 (racemic) [KBU2046, (±)-3(4-fluorophenyl)chroman-4-one]
inhibition of phosphatase activity ([1]; 20 phosphatases): No evidence supports inhibition | inhibition of kinase activity ([1]; radiometric, 284 kinases): no evidence that KBU2046 inhibits | IC20 (1542CPTX): > 50 µM | pIC50 (1542CPTX): < 4.30 | viability at 3 days, 50 µM [2]: 104% | CK2 phosphorylation of S226 on HSP90β (CK2): does not inhibit | organ damage, histological scoring ([3]; athymic mice, KBU2046 in chow, 35 days): No organ damage was observed | toxicity after oral dosing ([3]; oral doses up to 150 mg/kg, up to 35 days): no observed toxicity
